Laboratory results: patent publication US12358949B2, “Defensin fragments for use in therapy or prophylaxis” (priority 2019, dated 2025)
Entries after “also recorded” stand apart in the source; their conditions may differ. Read-outs that look alike come from different tables or passages of the source. Where a SMILES comes first, the peptide text is derived from it. Bridges are numbered along the chain shown (N, C = ends).

Tests used:
Type in all cases: cell-based
[1] = system: commensal bacteria; experiment: Radial diffusion assay, HD-5 fragments; details: 4 μg fragment, 2 μg full-length peptide; commensal bacteria (FIG. 3)
Description: In the RDA 2 μg of the full length and 4 μg of each fragment were used. An inhibition zone greater than 5 mm was determined as high activity, between 2.5 and 5 mm as low activity and 2.5 mm were the diameter of the punched well and therefore no activity.
(§1) Antimicrobial activity of all peptides was tested with a modified radial diffusion assay from Lehrer et al^12 Shortly described, log-phase bacteria grew (anaerobic bacteria with AnaeroGen, Oxoid in anaerobic jars) in liquid tryptic soy broth (TSB) (Becton Dickinson). After several wash steps in 10 mM sodium phosphate buffer pH 7.4, 4×10^6 cfu/ml was used per assay. To measure the antibacterial effect of the identified peptide fragments, the bacteria were incubated in 10 mM sodium phosphate (pH 7.4) containing 0.3 mg/ml TSB powder and 1% (w/v) low EEO-agarose (Applichem). Peptide fragments were then pipetted into punched wells and allowed to diffuse for 3 hours at 37° C. After that a nutrient rich gel with 6% TSB (w/v) and 1% agarose in 10 mM sodium phosphate buffer was poured on top of the first gel. After 24 hours the inhibition zones were measured. […] All experiments were carried out at least three times.

[2] = system: E. coli MC1000; experiment: Transmission electron microscopy of peptide treated bacteria; details: 200 μg/ml, 2 hours
Description: Transmission electron microcscopy experiments were performed as previously described^11. 6×10^8 cfu E. coli MC1000 was incubated with 200 μg/ml of each peptide for 2 hours. Bacteria were fixed in Karnovsky's fixative, embedded in agarose, coagulated, cut in small blocks and fixed again in Karnovsky's solution. After post-fixation and embedding in glycid ether blocks were cut using an ultra-microtome. Sections (30 nm) were mounted on copper grids and analyzed using a Zeiss LIBRA 120 transmissions electron microscope.

[3] = system: pathogenic bacteria; experiment: Radial diffusion assay, HD-5 fragments; details: pathogenic Gram-positive and Gram-negative bacteria (FIG. 4)
Description: A heat map system with high activity (inhibition zone in the RDA>5 mm), low activity (2.5 to 5 mm) and no activity (2.5 mm) was used.
as §1

[4] = system: E. faecium 475747
Description: (§2) The tested bacteria were incubated overnight in 1×TSB broth, centrifuged and washed with 10 mM sodium phosphate buffer containing 1% (w/v) TSB broth. 5×10^5 cfu/ml bacteria were mixed with different peptide concentrations in 10 mM sodium phosphate buffer with 1% (w/v) TSB (final volume 100 μl) and incubated for 2 hours at 37° C. Afterwards we added 100 μl 2×TSB broth and we measured the optical density at 600 nm (Spark 10M, Tecan, Austria). Bacterial growth was monitored for 12 hours, growing at 37° C. with shaking during the measurements each 30 minutes, except for Akkermansia muciniphila which were incubated at 37° C. in an anaerobic jar and growth was measured after 72 hours.

[5] = system: A. baumannii 4-MRGN
Description: as §2

[6] = system: P. aeruginosa ATCC 27853
Description: as §2

[7] = system: P. aeruginosa XPAT2
Description: as §2

[8] = system: Y. enterocolitica
Description: as §2

[9] = system: K. pneumoniae DSM 30104
Description: as §2

[10] = system: E. coli JM83
Description: as §2

[11] = system: A. baumannii DSM 30007
Description: as §2

[12] = system: S. aureus USA300
Description: as §2

[13] = system: P. aeruginosa PAO1
Description: as §2

[14] = system: P. aeruginosa XPAT1
Description: as §2

[15] = system: P. aeruginosa 4-MRGN
Description: as §2

[16] = system: E. faecium DSM 20477
Description: as §2

[17] = system: S. aureus ATCC 25923
Description: as §2

[18] = system: K. pneumoniae 3-MRGN; details: K. pneumoniae 3-MRGN; after 12 hours
Description: as §2

[19] = system: C. albicans 529L

C[C@H](N)C(=O)N[C@H](C(=O)N[C@@H](CS)C(=O)N[C@@H](Cc1ccc(O)cc1)C(=O)N[C@@H](CS)C(=O)N[C@@H](CCCNC(=N)N)C(=O)N[C@H](C(=O)NCC(=O)N[C@@H](CCCNC(=N)N)C(=O)N[C@@H](CS)C(=O)N[C@@H](C)C(=O)N[C@H](C(=O)N[C@@H](CCCNC(=N)N)C(=O)O)[C@@H](C)O)[C@@H](C)O)[C@@H](C)O [HD-51-13] (H-ATCYCRTGRCATR-OH; N-terminus and C-terminus assumed)
antimicrobial activity in radial diffusion assay [1]: exhibited antimicrobial properties, albeit to a lesser extent than HD-51-9
phenotype of peptide treated bacteria (TEM) [2]: bigger aggregation inside the bacteria

CC[C@H](C)[C@H](NC(=O)[C@H](CCC(=O)O)NC(=O)[C@H](CS)NC(=O)[C@@H](NC(=O)CNC(=O)[C@H](CO)NC(=O)[C@H](CC(C)C)NC(=O)[C@H](CO)NC(=O)[C@H](CCC(=O)O)NC(=O)[C@H](CCCNC(=N)N)NC(=O)[C@@H](NC(=O)[C@H](C)NC(=O)[C@H](CS)NC(=O)[C@H](CCCNC(=N)N)NC(=O)CNC(=O)[C@@H](N)[C@@H](C)O)[C@@H](C)O)C(C)C)C(=O)N[C@@H](CO)C(=O)NCC(=O)N[C@@H](CCCNC(=N)N)C(=O)N[C@@H](CC(C)C)C(=O)N[C@@H](Cc1ccc(O)cc1)C(=O)N[C@@H](CCCNC(=N)N)C(=O)N[C@@H](CC(C)C)C(=O)N[C@@H](CS)C(=O)N[C@@H](CS)C(=O)N[C@@H](CCCNC(=N)N)C(=O)O [HD-57-32] (H-TGRCATRESLSGVCEISGRLYRLCCR-OH; N-terminus and C-terminus assumed)
antimicrobial activity in radial diffusion assay [3]: strong effect on the growth of every tested bacterium
MIC ([4]; 475747, 12 h): 25 µM
MIC ([4]; E. faecium 475747, after 12 hours, listed as 7-32): 72.2 µg/mL
MIC ([5]; 4-MRGN, 12 h): 25 µM
MIC ([5]; A. baumannii 4-MRGN, after 12 hours, listed as 7-32): 72.25 µg/mL
MIC ([6]; ATCC 27853, 12 h): 50 µM
MIC ([6]; P. aeruginosa ATCC 27853, after 12 hours, listed as 7-32): 144.5 µg/mL
antimicrobial activity in radial diffusion assay [1]: exhibited antimicrobial properties, albeit to a lesser extent than HD-51-9

CC[C@H](C)[C@H](NC(=O)[C@H](CCC(=O)O)NC(=O)[C@H](CS)NC(=O)[C@@H](NC(=O)CNC(=O)[C@H](CO)NC(=O)[C@H](CC(C)C)NC(=O)[C@H](CO)NC(=O)[C@H](CCC(=O)O)NC(=O)[C@H](CCCNC(=N)N)NC(=O)[C@@H](NC(=O)[C@H](C)NC(=O)[C@@H](N)CS)[C@@H](C)O)C(C)C)C(=O)N[C@@H](CO)C(=O)NCC(=O)N[C@@H](CCCNC(=N)N)C(=O)N[C@@H](CC(C)C)C(=O)N[C@@H](Cc1ccc(O)cc1)C(=O)N[C@@H](CCCNC(=N)N)C(=O)N[C@@H](CC(C)C)C(=O)N[C@@H](CS)C(=O)N[C@@H](CS)C(=O)N[C@@H](CCCNC(=N)N)C(=O)O [HD-510-32] (H-CATRESLSGVCEISGRLYRLCCR-OH; N-terminus and C-terminus assumed)
antimicrobial activity in radial diffusion assay [3]: only minimally active or more selective in terms of different strains; also recorded: limited to the two Gram-positive bacteria

CC[C@H](C)[C@H](NC(=O)[C@H](CCC(=O)O)NC(=O)[C@H](CS)NC(=O)[C@@H](NC(=O)CNC(=O)[C@H](CO)NC(=O)[C@H](CC(C)C)NC(=O)[C@H](CO)NC(=O)[C@@H](N)CCC(=O)O)C(C)C)C(=O)N[C@@H](CO)C(=O)NCC(=O)N[C@@H](CCCNC(=N)N)C(=O)N[C@@H](CC(C)C)C(=O)N[C@@H](Cc1ccc(O)cc1)C(=O)N[C@@H](CCCNC(=N)N)C(=O)N[C@@H](CC(C)C)C(=O)N[C@@H](CS)C(=O)N[C@@H](CS)C(=O)N[C@@H](CCCNC(=N)N)C(=O)O [HD-514-32] (H-ESLSGVCEISGRLYRLCCR-OH; N-terminus and C-terminus assumed)
antimicrobial activity in radial diffusion assay [3]: inactive

CC[C@H](C)[C@@H]1NC(=O)[C@H](CC(C)C)NC(=O)[C@@H]2CSSC[C@@H]3NC(=O)[C@H](CO)NC(=O)[C@@H](NC(=O)[C@@H](N)C(C)C)CSSC[C@@H](C(=O)N[C@H](C(=O)N[C@@H](CCCNC(=N)N)C(=O)N[C@H](C(=O)O)C(C)C)[C@@H](C)O)NC(=O)[C@H](CSSC[C@H](NC(=O)[C@H](Cc4ccccc4)NC(=O)[C@H](C(C)C)NC(=O)[C@H](CC(C)C)NC(=O)[C@H](CCCNC(=N)N)NC3=O)C(=O)N[C@@H](CCCNC(=N)N)C(=O)N[C@@H](CCCNC(=N)N)C(=O)N[C@@H]([C@@H](C)O)C(=O)N[C@@H](CCC(=O)O)C(=O)N[C@@H](CC(C)C)C(=O)N[C@@H](CCCNC(=N)N)C(=O)N[C@@H](C(C)C)C(=O)NCC(=O)N[C@@H](CC(N)=O)C(=O)N2)NC(=O)[C@H](Cc2ccc(O)cc2)NC(=O)[C@H]([C@@H](C)O)NC(=O)[C@H](Cc2ccccc2)NC(=O)[C@H](CO)NC(=O)[C@H](C(C)C)NC(=O)CNC(=O)CNC1=O [HNP-4fl, reference compound] (H-VCSCRLVFCRRTELRVGNCLIGGVSFTYCCTRV-OH; disulfide 2-30, 4-19, 9-29 (inferred); N-terminus and C-terminus assumed)
MIC ([7]; P. aeruginosa XPAT2, after 12 hours): 46.4 µg/mL
MIC ([7]; XPAT2, 12 h): 12.5 µM
MIC ([8]; 12 h): 12.5 µM
MIC ([8]; Y. enterocolitica, after 12 hours): 46.4 µg/mL
MIC ([9]; DSM 30104, 12 h): 100 µM
MIC ([9]; K. pneumoniae DSM30104, after 12 hours): 371.5 µg/mL
MIC ([10]; E. coli JM83, after 12 hours): 46.4 µg/mL
MIC ([10]; JM83, 12 h): 12.5 µM
MIC ([4]; 475747, 12 h): 3.125 µM
MIC ([4]; E. faecium 475747, after 12 hours): 11.6 µg/mL
MIC ([11]; A. baumannii DSM30007, after 12 hours): 11.6 µg/mL
MIC ([11]; DSM 30007, 12 h): 3.125 µM
MIC ([12]; S. aureus USA300, after 12 hours): 23.2 µg/mL
MIC ([12]; USA300, 12 h): 6.25 µM
MIC ([5]; 4-MRGN, 12 h): 12.5 µM
MIC ([5]; A. baumannii 4-MRGN, after 12 hours): 46.4 µg/mL
MIC ([6]; ATCC 27853, 12 h): 6.25 µM
MIC ([6]; P. aeruginosa ATCC 27853, after 12 hours): 23.2 µg/mL
MIC ([13]; P. aeruginosa PAO1, after 12 hours): 46.4 µg/mL
MIC ([13]; PAO1, 12 h): 12.5 µM
MIC ([14]; P. aeruginosa XPAT1, after 12 hours): 46.4 µg/mL
MIC ([14]; XPAT1, 12 h): 12.5 µM
MIC ([15]; 4-MRGN, 12 h): 50 µM
MIC ([15]; P. aeruginosa 4-MRGN, after 12 hours): 185.8 µg/mL
MIC ([16]; DSM 20477, 12 h): 6.25 µM
MIC ([16]; E. faecium DSM20477, after 12 hours): 23.2 µg/mL
MIC ([17]; ATCC 25923, 12 h): 6.25 µM
MIC ([17]; S. aureus ATCC25923, after 12 hours): 23.2 µg/mL
MIC [18]: >>>
MIC ([19]; 529L, 24 h): 50 µM
MIC ([19]; C. albicans 529L, after 24 hours (Table 5)): 185.8 µg/mL

CATRESLSGVCEISGRLY (listed as Homo sapiens) [HD-510-27, HD-5 fragment 10-27]
antimicrobial activity in radial diffusion assay [3]: inactive
antimicrobial activity in radial diffusion assay [1]: did not exhibit measurable activity

LYRLCCR (listed as Homo sapiens) [HD-526-32, HD-5 fragment 26-32]
antimicrobial activity in radial diffusion assay [3]: only minimally active or more selective in terms of different strains
antimicrobial activity in radial diffusion assay [1]: exhibited antimicrobial properties, albeit to a lesser extent than HD-51-9
